Test results taken from patent publication US8471005B2 (Cephalon, Inc., priority 2008, dated 2013).
Where two headings read alike, the source gives them in different places.

What was measured:
[1] = molecular target: T1, ALK (Homo sapiens, UniProt Q9UM73); test: ALK Kinase Assay (ELISA/TRF, PLC-γ substrate); assay type: biochemical; conditions: read-out: ALK Potency
T1 construct: host or cells: baculovirus expression system
Procedure, shortened: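 PLC-γ coat 10 μg/mL in TBS; ALK 30 ng/ml added to start; 37° C, 15 min; Eu-N1 PT66 antibody detection (TRF). IC50: % inhibition vs log10 [cpd], variable-slope sigmoidal fit.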

[2] = molecular target: T2, JAK2 (Homo sapiens, UniProt O60674); test: Recombinant Human JAK2 Kinase Assay (TRF); assay type: biochemical; conditions: read-out: JAK2 Potency
T2 construct: host or cells: baculovirus expression system
T2 sequence (O60674 whole entry): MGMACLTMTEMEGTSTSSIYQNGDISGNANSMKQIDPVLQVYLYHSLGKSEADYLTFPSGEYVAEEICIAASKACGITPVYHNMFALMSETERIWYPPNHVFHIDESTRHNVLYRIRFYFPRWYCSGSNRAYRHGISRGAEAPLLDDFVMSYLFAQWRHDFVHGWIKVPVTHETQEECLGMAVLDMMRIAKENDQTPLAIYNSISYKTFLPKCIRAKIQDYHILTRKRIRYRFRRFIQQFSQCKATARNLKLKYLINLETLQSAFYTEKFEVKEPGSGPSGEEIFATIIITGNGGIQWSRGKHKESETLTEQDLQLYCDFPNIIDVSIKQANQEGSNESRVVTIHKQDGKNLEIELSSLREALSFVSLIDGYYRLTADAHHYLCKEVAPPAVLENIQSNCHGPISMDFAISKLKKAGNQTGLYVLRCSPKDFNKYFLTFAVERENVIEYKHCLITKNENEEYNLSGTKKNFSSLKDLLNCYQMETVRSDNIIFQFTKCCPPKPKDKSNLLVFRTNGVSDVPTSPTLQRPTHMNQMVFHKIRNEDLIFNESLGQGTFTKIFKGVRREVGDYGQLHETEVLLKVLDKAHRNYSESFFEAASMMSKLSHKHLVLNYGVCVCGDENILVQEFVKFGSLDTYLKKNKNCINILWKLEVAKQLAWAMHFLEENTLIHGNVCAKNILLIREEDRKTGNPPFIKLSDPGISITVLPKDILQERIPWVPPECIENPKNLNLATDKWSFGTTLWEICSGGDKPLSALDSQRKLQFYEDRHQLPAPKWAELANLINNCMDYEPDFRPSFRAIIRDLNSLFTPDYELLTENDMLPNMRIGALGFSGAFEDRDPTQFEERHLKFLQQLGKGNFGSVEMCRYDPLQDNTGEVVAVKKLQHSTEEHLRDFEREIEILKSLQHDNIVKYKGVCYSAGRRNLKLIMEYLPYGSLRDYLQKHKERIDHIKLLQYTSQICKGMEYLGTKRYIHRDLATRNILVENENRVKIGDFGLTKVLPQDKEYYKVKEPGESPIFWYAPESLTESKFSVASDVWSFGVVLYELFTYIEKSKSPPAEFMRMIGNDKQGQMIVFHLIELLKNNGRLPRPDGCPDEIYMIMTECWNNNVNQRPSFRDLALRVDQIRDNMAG
Procedure, shortened: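 Europium-labelled PY100 antibody reported tyrosine phosphorylation of a Neutravidin-captured biotinyl 15-mer peptide by JAK2 (baculovirus-expressed, 15 ng/ml). Conditions: 20 mM HEPES pH 7.2, 0.2 μM ATP, 1 mM MnCl2, 0.1% BSA, DMSO 2.5% final, 20 min at room temperature.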

[3] = ALK kinase inhibition, 1 μM ATP
[4] = JAK2 kinase inhibition, 0.2 μM ATP

T1 sequence (Q9UM73 19-1620): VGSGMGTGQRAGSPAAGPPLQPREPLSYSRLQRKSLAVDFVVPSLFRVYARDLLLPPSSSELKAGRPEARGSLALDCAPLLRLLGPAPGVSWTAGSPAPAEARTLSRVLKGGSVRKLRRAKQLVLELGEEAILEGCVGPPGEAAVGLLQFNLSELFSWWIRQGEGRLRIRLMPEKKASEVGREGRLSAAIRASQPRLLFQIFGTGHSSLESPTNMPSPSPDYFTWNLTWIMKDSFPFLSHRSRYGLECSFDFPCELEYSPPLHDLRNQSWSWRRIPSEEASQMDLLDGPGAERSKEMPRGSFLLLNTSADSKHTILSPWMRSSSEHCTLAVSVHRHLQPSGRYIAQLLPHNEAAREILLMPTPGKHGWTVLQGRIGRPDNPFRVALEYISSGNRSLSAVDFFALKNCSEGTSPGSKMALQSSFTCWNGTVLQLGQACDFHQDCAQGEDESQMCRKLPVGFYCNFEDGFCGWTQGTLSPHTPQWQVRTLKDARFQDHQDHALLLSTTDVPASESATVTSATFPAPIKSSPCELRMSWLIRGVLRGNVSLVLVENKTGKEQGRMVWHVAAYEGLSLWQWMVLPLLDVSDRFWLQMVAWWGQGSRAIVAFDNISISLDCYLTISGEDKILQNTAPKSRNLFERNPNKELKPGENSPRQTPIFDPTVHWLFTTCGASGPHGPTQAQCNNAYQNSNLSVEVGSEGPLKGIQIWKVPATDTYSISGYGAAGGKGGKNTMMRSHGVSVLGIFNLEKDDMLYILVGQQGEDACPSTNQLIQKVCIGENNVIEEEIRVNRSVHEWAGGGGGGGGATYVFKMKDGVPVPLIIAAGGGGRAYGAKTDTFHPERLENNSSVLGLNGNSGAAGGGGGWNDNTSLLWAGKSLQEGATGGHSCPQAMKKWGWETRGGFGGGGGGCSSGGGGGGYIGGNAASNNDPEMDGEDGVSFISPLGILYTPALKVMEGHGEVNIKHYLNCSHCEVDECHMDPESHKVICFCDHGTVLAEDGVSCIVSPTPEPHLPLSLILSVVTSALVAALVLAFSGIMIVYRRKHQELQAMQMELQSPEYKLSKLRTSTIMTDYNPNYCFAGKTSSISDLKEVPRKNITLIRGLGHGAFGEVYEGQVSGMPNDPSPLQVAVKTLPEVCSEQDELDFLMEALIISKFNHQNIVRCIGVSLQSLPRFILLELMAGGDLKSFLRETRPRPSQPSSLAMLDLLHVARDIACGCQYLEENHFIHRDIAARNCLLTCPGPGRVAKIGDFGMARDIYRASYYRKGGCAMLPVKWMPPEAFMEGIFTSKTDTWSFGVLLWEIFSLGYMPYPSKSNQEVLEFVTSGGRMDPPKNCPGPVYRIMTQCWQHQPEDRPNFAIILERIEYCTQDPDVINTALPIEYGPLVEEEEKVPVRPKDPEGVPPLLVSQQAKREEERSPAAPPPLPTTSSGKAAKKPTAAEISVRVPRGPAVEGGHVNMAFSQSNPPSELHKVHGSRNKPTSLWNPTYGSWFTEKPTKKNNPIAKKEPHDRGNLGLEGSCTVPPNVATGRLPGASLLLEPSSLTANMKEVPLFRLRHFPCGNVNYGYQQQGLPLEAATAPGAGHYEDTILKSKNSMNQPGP

Row | SMILES | IC50 ([1]; ALK Kinase Inhibition) [nM] | IC50 ([2]; JAK2 Kinase Inhibition) [nM] | IC50 [1, 3] [nM] | IC50 [2, 4] [nM]
1 | CS(=O)(=O)Nc1ccc(-c2ccc3cnc(Nc4cccc(N5CCOCC5)c4)nn23)cc1 [Example 182, N-{4-[2-(3-Morpholin-4-yl-phenylamino)-pyrrolo[2,1-f][1,2,4]triazin-7-yl]-phenyl}-methanesulfonamide] | 100 to 1000 | < 100 | – | –
2 | COc1cc(N2CCC(N3CCOCC3)CC2)ccc1Nc1ncc2ccc(-c3ccccc3OC(F)(F)F)n2n1 [Example 1455, [2-Methoxy-4-(4-morpholin-4-yl-piperidin-1-yl)-phenyl]-[7-(2-trifluoromethoxy-phenyl)-pyrrolo[2,1-f][1,2,4]triazin-2-yl]-amine] | < 100 | < 100 | – | –
3 | CN1CCN(c2ccc(Nc3ncc4ccc(-c5cccc(CO)c5)n4n3)cc2)CC1 [Example 1498, (3-{2-[4-(4-Methyl-piperazin-1-yl)-phenylamino]-pyrrolo[2,1-f][1,2,4]triazin-7-yl}-phenyl)-methanol] | < 100 | < 100 | – | –
4 | CC(C)(C)NS(=O)(=O)c1cccc(-c2ccc3cnc(Nc4ccc5c(c4)CCN(CC(N)=O)C5)nn23)c1 [Example 920, 2-{6-[7-(3-tert-Butylsulfamoyl-phenyl)-pyrrolo[2,1-f][1,2,4]triazin-2-ylamino]-3,4-dihydro-1H-isoquinolin-2-yl}-acetamide] | – | – | 100 to 1000 | < 100
5 | COc1cc(C2CCN(C)CC2)ccc1Nc1ncc2ccc(-c3cccc(S(=O)(=O)NC(C)(C)C)c3)n2n1 [Example 692, N-tert-Butyl-3-{2-[2-methoxy-4-(1-methyl-piperidin-4-yl)-phenylamino]-pyrrolo[2,1-f][1,2,4]triazin-7-yl}-benzenesulfonamide] | – | – | < 100 | < 100
6 | COc1ccc(-c2ccc3cnc(Nc4ccc(OC)c(N5CCOCC5)c4)nn23)cn1 [Example 397, (4-Methoxy-3-morpholin-4-yl-phenyl)-[7-(6-methoxy-pyridin-3-yl)-pyrrolo[2,1-f][1,2,4]triazin-2-yl]-amine] | 100 to 1000 | < 100 | – | –
7 | COc1ccc(-c2ccc3cnc(Nc4ccc5nc(CN6CCN(CCO)CC6)[nH]c5c4)nn23)cn1 [Example 1523, 2-(4-{6-[7-(6-Methoxy-pyridin-3-yl)-pyrrolo[2,1-f][1,2,4]triazin-2-ylamino]-1H-benzimidazol-2-ylmethyl}-piperazin-1-yl)-ethanol] | 1000 to 10000 | < 100 | – | –
8 | COc1cc(N2CCC(N(C)C)C2)ccc1Nc1ncc2ccc(-c3ccccc3OC)n2n1 (stereo not shown) [Example 763, [4-(3-Dimethylamino-pyrrolidin-1-yl)-2-methoxy-phenyl]-[7-(2-methoxy-phenyl)-pyrrolo[2,1-f][1,2,4]triazin-2-yl]-amine] | – | – | < 100 | < 100
9 | CN(C)S(=O)(=O)c1cccc(Nc2ncc3ccc(-c4cccc(S(=O)(=O)NC(C)(C)C)c4)n3n2)c1 [Example 592, 3-({7-[3-(tert-butylsulfamoyl)phenyl]pyrrolo[2,1-f][1,2,4]triazin-2-yl}amino)-N,N-dimethylbenzenesulfonamide] | – | – | 1000 to 10000 | < 100
10 | CN1CCC(c2ccc(Nc3ncc4ccc(-c5cccnc5)n4n3)cc2)CC1 [Example 1179, [4-(1-Methyl-piperidin-4-yl)-phenyl]-(7-pyridin-3-yl-pyrrolo[2,1-f][1,2,4]triazin-2-yl)-amine] | – | – | 100 to 1000 | < 100
11 | CN(c1ccccc1-c1ccc2cnc(Nc3cnn(CCN4CCOCC4)c3)nn12)S(C)(=O)=O [Example 1193, N-Methyl-N-(2-{2-[1-(2-morpholin-4-yl-ethyl)-1H-pyrazol-4-ylamino]-pyrrolo[2,1-f][1,2,4]triazin-7-yl}-phenyl)-methanesulfonamide] | – | – | 1000 to 10000 | < 100
12 | COc1cc(C2CCN(C[C@H](O)CO)CC2)ccc1Nc1ncc2ccc(-c3ccccc3OC)n2n1 [Example 761, (S)-3-(4-{3-Methoxy-4-[7-(2-methoxy-phenyl)-pyrrolo[2,1-f][1,2,4]triazin-2-ylamino]-phenyl}-piperidin-1-yl)-propane-1,2-diol] | – | – | < 100 | 100 to 1000
13 | Clc1ncccc1-c1ccc2cnc(Nc3ccc(N4CCOCC4)cc3)nn12 [Example 1034, [7-(2-Chloro-pyridin-3-yl)-pyrrolo[2,1-f][1,2,4]triazin-2-yl]-(4-morpholin-4-yl-phenyl)-amine] | – | – | 1000 to 10000 | < 100
14 | COc1cc(C2CCN(C(C)C(N)=O)CC2)ccc1Nc1ncc2ccc(-c3ccccc3OC)n2n1 (stereo not shown) [Example 1275, 2-(4-{3-Methoxy-4-[7-(2-methoxy-phenyl)-pyrrolo[2,1-f][1,2,4]triazin-2-ylamino]-phenyl}-piperidin-1-yl)-propionamide] | – | – | < 100 | 100 to 1000
15 | CC(=O)N1CCCC(C)(C)c2ccc(Nc3ncc4ccc(-c5cnn(C)c5)n4n3)cc21 [Example 1381, 1-{5,5-Dimethyl-8-[7-(1-methyl-1H-pyrazol-4-yl)-pyrrolo[2,1-f][1,2,4]triazin-2-ylamino]-2,3,4,5-tetrahydro-benzo[b]azepin-1-yl}-ethanone] | 1000 to 10000 | < 100 | – | –
16 | COc1ccc(Cl)cc1-c1ccc2cnc(Nc3ccc(C4CCN(CC(N)=O)CC4)cc3)nn12 [Example 1024] | – | – | < 100 | < 100
17 | COc1cc(CN2C[C@@H](O)[C@H](O)C2)ccc1Nc1ncc2ccc(-c3ccccc3N(C)S(C)(=O)=O)n2n1 [Example 1236, N-(2-{2-[4-((3R,4R)-3,4-Dihydroxy-pyrrolidin-1-ylmethyl)-2-methoxy-phenylamino]-pyrrolo[2,1-f][1,2,4]triazin-7-yl}-phenyl)-N-methyl-methanesulfonamide] | – | – | < 100 | 1000 to 10000
18 | COc1ccccc1-c1ccc2cnc(Nc3cccc(C(=O)N4CCN(CCO)CC4)c3OC)nn12 [Example 1233, [4-(2-Hydroxy-ethyl)-piperazin-1-yl]-{2-methoxy-3-[7-(2-methoxy-phenyl)-pyrrolo[2,1-f][1,2,4]triazin-2-ylamino]-phenyl}-methanone] | – | – | 100 to 1000 | 1000 to 10000
19 | COc1cc(N2CCC[C@@H](CN3CCN(C)CC3)C2)ccc1Nc1ncc2ccc(-c3ccccc3N(C)S(C)(=O)=O)n2n1 [Example 469, N-[2-(2-{2-Methoxy-4-[(S)-3-(4-methyl-piperazin-1-ylmethyl)-piperidin-1-yl]-phenylamino}-pyrrolo[2,1-f][1,2,4]triazin-7-yl)-phenyl]-N-methyl-methanesulfonamide] | < 100 | 100 to 1000 | – | –
20 | CC(=O)Nc1cc(Nc2ncc3ccc(-c4cnn(C)c4)n3n2)ccc1C(C)(C)C [Example 1380, N-{2-tert-Butyl-5-[7-(1-methyl-1H-pyrazol-4-yl)-pyrrolo[2,1-f][1,2,4]triazin-2-ylamino]-phenyl}-acetamide] | 1000 to 10000 | < 100 | – | –
21 | CC(=O)Nc1cccc(Nc2ncc3ccc(-c4ccccc4NS(C)(=O)=O)n3n2)c1 [Example 1382, N-{3-[7-(2-Methanesulfonylamino-phenyl)-pyrrolo[2,1-f][1,2,4]triazin-2-ylamino]-phenyl}-acetamide] | 1000 to 10000 | < 100 | – | –
22 | Cc1nc2cc(Nc3ncc4ccc(-c5cccc(S(=O)(=O)NC(C)(C)C)c5)n4n3)ccc2s1 [Example 574, N-tert-Butyl-3-[2-(2-methyl-benzothiazol-5-ylamino)-pyrrolo[2,1-f][1,2,4]triazin-7-yl]-benzenesulfonamide] | – | – | 1000 to 10000 | < 100
23 | CN1CCN(c2ccc(Nc3ncc4ccc(-c5ccccc5S(=O)(=O)NC(C)(C)C)n4n3)cc2)CC1 [Example 411] | < 100 | < 100 | – | –
24 | COc1cc(N2CCC(N3CCOCC3)CC2)ccc1Nc1ncc2ccc(-c3cccc(OC)c3OC)n2n1 [Example 1465, [7-(2,3-Dimethoxy-phenyl)-pyrrolo[2,1-f][1,2,4]triazin-2-yl]-[2-methoxy-4-(4-morpholin-4-yl-piperidin-1-yl)-phenyl]-amine] | < 100 | < 100 | – | –
25 | CN1CCN(c2ccc(Nc3ncc4ccc(-c5cn(C)cn5)n4n3)cc2)CC1 [Example 1043, [7-(1-Methyl-1H-imidazol-4-yl)-pyrrolo[2,1-f][1,2,4]triazin-2-yl]-[4-(4-methyl-piperazin-1-yl)-phenyl]-amine] | – | – | 100 to 1000 | < 100
26 | C[C@H](O)CN1CCN(c2ccc(Nc3ncc4ccc(-c5ccccc5NS(C)(=O)=O)n4n3)cc2)CC1 [Example 430, N-[2-(2-{4-[4-((S)-2-Hydroxy-propyl)-piperazin-1-yl]-phenylamino}-pyrrolo[2,1-f][1,2,4]triazin-7-yl)-phenyl]-methanesulfonamide] | 100 to 1000 | < 100 | – | –
27 | COc1cc(C2CCN(C[C@H](O)CO)CC2)ccc1Nc1ncc2ccc(-c3ccccc3N(C)S(C)(=O)=O)n2n1 [Example 769, N-[2-(2-{4-[1-((S)-2,3-Dihydroxy-propyl)-piperidin-4-yl]-2-methoxy-phenylamino}-pyrrolo[2,1-f][1,2,4]triazin-7-yl)-phenyl]-N-methyl-methanesulfonamide] | – | – | < 100 | 100 to 1000
28 | COc1ccc(-c2ccc3cnc(Nc4ccc(N5CCN(C)CC5)cc4)nn23)cc1 [Example 421, [7-(4-Methoxy-phenyl)-pyrrolo[2,1-f][1,2,4]triazin-2-yl]-[4-(4-methyl-piperazin-1-yl)-phenyl]-amine] | 100 to 1000 | < 100 | – | –
29 | CN(C)CC(=O)Nc1cccc(Nc2ncc3ccc(-c4cccc(S(=O)(=O)NC(C)(C)C)c4)n3n2)c1 [Example 897, N-{3-[7-(3-tert-Butylsulfamoyl-phenyl)-pyrrolo[2,1-f][1,2,4]triazin-2-ylamino]-phenyl}-2-dimethylamino-acetamide] | – | – | < 100 | < 100
